Test results from patent US20230104487A1, “11-(4-CHLOROPHENYL)-4-(2,3-DIHYDRO-1H-INDOLE-1-CARBONYL)-3,11-DIMETHYL-5,10,DIOXATRICYCLO[7.4.0.0,2,6,]TRIDECA-1,3,6,8-TETRAEN-13-ONE AND DERIVATIVES AS DESTABILIZER OF CRY1 FOR THE TREATMENT OF CIRCADIAN RHYTHM ASSOCIATED DISEASES AND DISORDERS” (KOC UNIVERSITESI, priority 2019, published 2023).

Target: T1, CRY1 (Homo sapiens, UniProt Q16526)
T1 construct: To evaluate the effect of FORMULA I on the endogenous protein and mRNA level of clock genes; endogenous in cells; host or cells: U2-OS
T1 sequence (Q16526 1-586): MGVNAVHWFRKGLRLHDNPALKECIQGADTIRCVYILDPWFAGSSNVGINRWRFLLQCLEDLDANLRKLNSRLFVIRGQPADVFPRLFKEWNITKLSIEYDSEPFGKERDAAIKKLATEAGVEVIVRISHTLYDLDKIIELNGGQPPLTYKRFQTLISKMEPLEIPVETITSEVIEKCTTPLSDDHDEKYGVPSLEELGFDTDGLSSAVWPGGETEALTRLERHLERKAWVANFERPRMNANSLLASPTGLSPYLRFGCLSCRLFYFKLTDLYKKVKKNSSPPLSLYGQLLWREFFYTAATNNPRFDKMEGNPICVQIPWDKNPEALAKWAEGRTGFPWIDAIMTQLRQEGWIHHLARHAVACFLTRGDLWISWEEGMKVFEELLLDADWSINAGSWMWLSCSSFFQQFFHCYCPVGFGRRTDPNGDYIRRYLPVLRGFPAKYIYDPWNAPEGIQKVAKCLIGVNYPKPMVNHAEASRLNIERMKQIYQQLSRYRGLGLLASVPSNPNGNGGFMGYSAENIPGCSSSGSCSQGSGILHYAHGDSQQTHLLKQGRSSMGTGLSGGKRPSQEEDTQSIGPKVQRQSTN
Assay: Protein immunoblot, synchronized U2-OS cells, CRY1
Format: cell-based
Settings: 10 μM, 80-92 h
Protocol: FIGS. 3A-3G are an illustration of FORMULA I decreased CRY1 level in synchronized U2-OS cells. Confluent U2-OS cells were synchronized by 2 h treatment with dexamethasone ([…]) and medium replaced with fresh medium containing FORMULA I or solvent (DMSO final 0.5%). Cells were harvested at indicated time points. FIGS. 3A-3B show lysed cells were analyzed via protein immunoblot technique. […] CRY levels in DMSO control divided by that of in FORMULA I treated samples were reported (mean±SEM, n=4). FIGS. 3C-3G show cells were subjected to reverse-transcription-quantitative polymerase chain reaction (RT-qPCR). […] Expression level of genes was normalized according to the expression level of that gene at 72ndh. (Data represent the mean±SEM, n=3 with duplicates ***: p<0.001 **: p<0.005, *: p<0.05 versus DMSO control by two-way ANOVA).
Cells were lysed in RIPA buffer (50 mM Tris, 150 mM NaCl, 1% Triton-X, 0.1% SDS) with fresh Protease inhibitor cocktail (PIC). After centrifugation at 13000 rpm for 15 minutes at 4° C., supernatant was used to determine the protein amount using Pierce Protein Assay (Thermo Scientific) according to the manufacturer's instruction. Mice liver samples were homogenized and lysed with Dounce homogenizer and RIPA buffer. […] ECL buffer system (Advansta WesternBright) was used to visualize HRP chemi-luminescence via BioRad ChemiDoc Touch visualizer. […]

Cc1c(C(=O)N2CCc3ccccc32)oc2ccc3c(c12)C(=O)CC(C)(c1ccc(Cl)cc1)O3 (stereo not shown) [FORMULA I, 11-(4-chlorophenyl)-4-(2,3-dihydro-1H-indole-1-carbonyl)-3,11-dimethyl-5,10,dioxatricyclo[7.4.0.0,2,6,]trideca-1,3,6,8-tetraen-13-one]
CRY1 protein level: decreased the protein level of CRY1
